Experimental findings from patent US20110009453A1, “S1P3 RECEPTOR INHIBITORS FOR TREATING INFLAMMATION” (priority 2008, published 2011) are described below.

One assay addresses T1, human S1P3 receptor (Homo sapiens, UniProt Q99500).
T1 construct: expressed in transfected cells
In words: FLIPR assay in T24 cells stably expressing the human S1P3 receptor. The format is cell-based. The conditions noted are these: for inhibition at 10 µM: T-24, read-out: S1P3 percent inhibition (in parenthesis). As for the experimental part: Another method of determining if a compound is an S1P3 receptor inhibitor is with a FLIPR assay. An example of this method is described in U.S. patent application Ser. No. 11/675,168, the contents of which are incorporated herein by reference. According to that application, compounds may be assessed for their ability to activate or block activation of the human S1P3 receptor in T24 cells stably expressing the human S1P3 receptor. In this assay ten thousand cells/well are plated into 384-well poly-D-lysine coated plates one day prior to use. The growth media for the S1P3 receptor expressing cell line is McCoy's 5A medium supplemented with 10% charcoal-treated fetal bovine serum (FBS), 1% antibiotic-antimycotic and 400 μg/ml geneticin. On the day of the experiment, the cells are washed twice with Hank's Balanced Salt Solution supplemented with 20 mM HEPES (HBSS/Hepes buffer). The cells are then dye loaded with 2 uM Fluo-4 diluted in the HBSS/Hepes buffer with 1.25 mM Probenecid and incubated at 37° C. for 40 minutes. Extracellular dye is removed by washing the cell plates four times prior to placing the plates in the FLIPR (Fluorometric Imaging Plate Reader, Molecular Devices). Ligands are diluted in HBSS/Hepes buffer and prepared in 384-well microplates. The positive control, S1P, is diluted in HBSS/Hepes buffer with 4 mg/ml fatty acid free bovine serum albumin. The FLIPR transfers 12.5 μl from the ligand microplate to the cell plate and takes fluorescent measurements for 75 seconds, taking readings every second, and then for 2.5 minutes, taking readings every 10 seconds. Drugs are tested over the concentration range of to 0.61 nM to 10,000 nM. Data for Ca^+2 responses is obtained in arbitrary fluorescence units and not translated into Ca^+2 concentrations. IC50 values are determined through a […] analysis using the Levenburg Marquardt algorithm.
Examples of such compounds include the following. […] The EC50 and IC50 values expressed in the following table were obtained in the FLIPR assay described above. EC50 or IC50 values are stated first, followed by percent efficacy or percent inhibition stated in parenthesis. In this table and the next, percent efficacy is defined as percent of receptor activity induced by a test compound at the highest dose tested (10 μM) relative to the receptor activity induced by 5 nM sphingosine-1-phosphate, and percent inhibition is defined as percent of receptor activity induced by 5 nM sphingosine-1-phosphate that is inhibited by a test compound at the highest dose tested (10 μM). “NA” means that no activity was detected at highest dose tested; “ND” means not determined.
The IC50 values expressed below were obtained in the FLIPR assay described above. IC50 values are stated first (except as otherwise noted), followed by percent efficacy or percent inhibition in parenthesis.

In a further assay the target is S1P1 receptor (Homo sapiens, UniProt P21453). Nature of the assay: FLIPR assay (Ca2+ response), S1P1 receptor. Format: cell-based.
Setting [1] is: percent of activity induced by 5 nM sphingosine-1-phosphate inhibited at 10 μM, table of additional selective S1P3 inhibitors.
The mark [2] stands for this setting: percent of activity induced by 5 nM sphingosine-1-phosphate inhibited at highest dose tested (10 μM).
The mark [3] stands for this setting: FLIPR, table of additional selective S1P3 inhibitors, read-out: S1P3 (IC50).
Where [4] appears, read: FLIPR, values given in μM, read-out: S1P3 (IC50).
[5] abbreviates: tested 0.61 nM to 10,000 nM, NA = no activity detected at highest dose tested, read-out: S1P1 (EC50).
[6] abbreviates: FLIPR, values in nM, read-out: S1P3 (IC50).

Structures are written as SMILES. Read-outs that look alike come from different tables or passages of the source.

The term IC50 denotes the concentration that gives 50% inhibition. By inhibition is commonly meant the share of the control response that was lost under treatment. The EC50 is the concentration needed to bring the measured effect to its halfway point.

S1P1 receptor, sequence (P21453 whole entry): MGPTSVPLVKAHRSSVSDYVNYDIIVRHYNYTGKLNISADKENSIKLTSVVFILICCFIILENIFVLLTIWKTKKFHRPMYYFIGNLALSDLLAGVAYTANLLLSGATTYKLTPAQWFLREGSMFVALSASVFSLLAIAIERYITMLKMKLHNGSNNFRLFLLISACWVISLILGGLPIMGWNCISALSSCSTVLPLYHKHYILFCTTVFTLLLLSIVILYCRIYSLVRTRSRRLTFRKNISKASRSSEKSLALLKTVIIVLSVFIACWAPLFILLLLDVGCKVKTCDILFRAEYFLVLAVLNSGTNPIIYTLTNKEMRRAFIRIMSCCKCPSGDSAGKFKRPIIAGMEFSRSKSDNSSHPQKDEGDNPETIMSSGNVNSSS
T1 sequence (Q99500 whole entry): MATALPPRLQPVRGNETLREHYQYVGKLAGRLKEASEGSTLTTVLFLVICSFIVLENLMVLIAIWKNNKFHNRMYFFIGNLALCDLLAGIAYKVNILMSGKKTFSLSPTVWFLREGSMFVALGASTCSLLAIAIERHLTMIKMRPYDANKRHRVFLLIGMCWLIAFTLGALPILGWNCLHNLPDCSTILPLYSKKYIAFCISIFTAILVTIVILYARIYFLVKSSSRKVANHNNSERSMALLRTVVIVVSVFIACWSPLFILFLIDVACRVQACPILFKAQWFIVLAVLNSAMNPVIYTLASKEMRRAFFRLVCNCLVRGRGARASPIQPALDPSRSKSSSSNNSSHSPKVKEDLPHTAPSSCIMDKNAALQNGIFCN

Compound `CC(C)Oc1ccc2c(C(=O)NCc3ccc(F)c(F)c3)c(C(C)C)n(Cc3ccccc3)c2c1` had an IC50 at human S1P3 receptor of 0.006 µM. For the same compound, the inhibition at 10 µM on human S1P3 receptor (setting [1]) stood at 100%.

For the compound `O=P(O)(O)CCCNCc1ccc(-c2ccc(C(F)(F)F)cc2)c(-c2ccccc2)n1` [Compound 150], the inhibition at 10 µM on human S1P3 receptor (setting [2]) came out at 95%.

Consider `O=C(NCc1ccc(F)c(F)c1)c1c(C2CCCC2)n(Cc2ccccn2)c2ccc(O)cc12`, for which the 50% inhibitory concentration (IC50) at human S1P3 receptor (setting [3]) was determined as 0.017 µM. Also, the inhibition at 10 µM on human S1P3 receptor (setting [1]) was 99%.

With `CC(C)c1c(C(=O)NCc2ccc(F)c(F)c2)c2cc(O)ccc2n1Cc1ccccc1`, at human S1P3 receptor, the midpoint of inhibition, the IC50, lay at 0.035 µM. At human S1P3 receptor (setting [1]), the inhibition at 10 µM is 98%.

With `CCOc1ccc2c(C(=O)NCc3ccc(F)c(F)c3)c(C(C)C)n(Cc3ccccc3)c2c1`, 0.019 µM corresponded to half-maximal inhibition on human S1P3 receptor (IC50). In addition, at human S1P3 receptor (setting [1]), the inhibition at 10 µM came out at 100%.

`CCc1ccc(-c2ccc(COCCCP(=O)(O)O)nc2-c2ccccc2)cc1` [Compound 155]: the 50% inhibitory concentration (IC50) at human S1P3 receptor (setting [4]) was 4 µM. Further, the inhibition at 10 µM on human S1P3 receptor (setting [2]) is 27%.

Consider `CCc1ccc(-c2ccc(CNCCP(=O)(O)O)nc2-c2ccncc2)cc1` [Compound 152], for which the IC50 on human S1P3 receptor (setting [4]) came out at 1.8 µM. Besides, the inhibition at 10 µM at human S1P3 receptor (setting [2]) was 68%.

On to `CCc1ccc(-c2ccc(CNCCP(=O)(O)O)nc2-c2ccccc2)cc1` [Compound 149], for which the 50% inhibitory concentration (IC50) at human S1P3 receptor (setting [4]) stood at 1.8 µM. Also, the inhibition at 10 µM on human S1P3 receptor (setting [2]) was 99%.

In the case of `Cc1ccc(-c2ccc(CNCCCP(=O)(O)O)nc2-c2ccccc2)cc1` [Compound 147], the EC50 on S1P1 receptor (setting [5]) is 0.121 µM. Further, the IC50 on human S1P3 receptor (setting [6]) was 0.231 µM. Moreover, at human S1P3 receptor (setting [2]), the inhibition at 10 µM is 98%.

For `CCc1ccc(-c2ccc(CNCCCP(=O)(O)O)nc2-c2ccncc2)cc1` [Compound 151], at human S1P3 receptor (setting [4]), the concentration for half-maximal inhibition (IC50) was 1.1 µM. In addition, on human S1P3 receptor (setting [2]), the inhibition at 10 µM came out at 95%.

Take `O=C(NCc1ccc(F)c(F)c1)c1c(C2CCCC2)n(Cc2ccccc2)c2ccc(O)cc12`: the IC50 on human S1P3 receptor (setting [3]) is 0.031 µM. For the same compound, at human S1P3 receptor (setting [1]), the inhibition at 10 µM is 100%.

`CC(C)c1c(C(=O)NCc2ccc(F)c(F)c2)c2ccccc2n1Cc1ccccc1` came in with an IC50 at human S1P3 receptor of 0.209 µM. Also, the inhibition at 10 µM at human S1P3 receptor (setting [1]) turned out to be 100%.

In the case of `CCc1ccc(-c2ccc(CNCCCP(=O)(O)O)nc2-c2ccccc2)cc1` [drawing 165], the EC50 at S1P1 receptor (table of additional selective S1P3 inhibitors, read-out: S1P1 EC50 (noted in IC50 column)) is 0.17 µM. Besides, the half-maximal inhibitory concentration (IC50) on human S1P3 receptor (setting [3]) worked out at 0.319 µM. Moreover, the “S1P3 percent inhibition (in parenthesis)” value on human S1P3 receptor (setting [1]) amounted to 98%.

For `CCc1ccc(-c2ccc(CNCCCCP(=O)(O)O)nc2-c2ccccc2)cc1` [Compound 153], on human S1P3 receptor (setting [2]), the inhibition at 10 µM was 30%.

With `CCc1ccc(-c2ccc(CNCCCP(=O)(O)O)nc2-c2ccccc2)cc1` [Compound 148], the concentration giving a half-maximal response (EC50) at S1P1 receptor (setting [5]) stood at 0.17 µM. Further, the half-maximal inhibitory concentration (IC50) on human S1P3 receptor (setting [6]) came out at 0.319 µM. The inhibition at 10 µM at human S1P3 receptor (setting [2]) is 98%.

As to `Cc1ccc(-c2ccc(COCCCP(=O)(O)O)nc2-c2ccccc2)cc1` [Compound 156], the IC50 on human S1P3 receptor (setting [4]) was determined as 1.9 µM. The inhibition at 10 µM on human S1P3 receptor (setting [2]) came to 11%.

`CCCOc1ccc2c(C(=O)NCc3ccc(F)c(F)c3)c(C(C)C)n(Cc3ccccc3)c2c1` returned an IC50 at human S1P3 receptor of 0.005 µM. The inhibition at 10 µM on human S1P3 receptor (setting [1]) is 100%.

For `O=P(O)(O)CCCNCc1ccc(-c2ccccc2)c(-c2ccccc2)n1` [Compound 146], the IC50 at human S1P3 receptor (setting [4]) stood at 1.6 µM. The inhibition at 10 µM at human S1P3 receptor (setting [2]) is 83%.

Regarding `CCCc1ccc(-c2ccc(CNCCCP(=O)(O)O)nc2-c2ccccc2)cc1` [Compound 154], at S1P1 receptor (setting [5]), the EC50 is 0.114 µM. For the same compound, the 50% inhibitory concentration (IC50) on human S1P3 receptor (setting [6]) was found to be 0.319 µM. In addition, the inhibition at 10 µM at human S1P3 receptor (setting [2]) is 98%.
